Laboratory results from patent US12642784B2, “ANAVEX2-73 for the treatment of genetic neurodevelopmental disorders” (ANAVEX LIFE SCIENCES CORP., priority 2019, dated 2026).

Assays:
[1] = tested on: female subjects diagnosed with Rett Syndrome; test: Example 5: 7-week treatment of Rett Syndrome subjects, RSBQ and CGI-I; format: in vivo, human
From the text: One useful measure of improvement for one or more symptoms of a genetic neurodevelopmental disorder may be determined using a behavioral questionnaire that interrogates a primary caregiver of a subject at multiple time points during a course of treatment, regarding multiple behavioral indicators of the disorder. For example, a Rett Syndrome Behavior Questionnaire (RSBQ) may comprise multiple, e.g., at least five but optionally 10 or more, such as 12, 15, 20, 25, 30, 35, 40, 45 or 50 or more behavioral indicators which ask for a caregiver's observations of the subject regarding the frequency of specific episodes or occurrences of each indicator. […]
Another useful measurement for one or more symptoms of a genetic neurodevelopmental disorder is a Clinical Global Impression-Improvement scale (CGI-I). This scale measures the improvement or worsening of the subject's condition relative to a baseline state before administration of the dosage form comprising a therapeutically acceptable amount of ANAVEX2-73, as assessed by one or more healthcare professionals. […]
(§1) For efficacy, the following parameters were measured in the female subjects: Rett Syndrome Behavior Questionnaire (RSBQ), Clinical Global Impressions (CGI-I), hand behaviors (RSBQ), breathing problems (RSBQ), waking during sleep (RSBQ), and glutamate biomarker, and GABA biomarkers.
(§2) Evaluation of the efficacy was measured as a comparison from baseline (week 0), week 4, and to end of treatment (week 7). Blood plasma samples were analyzed at week 0 and at week 7 to measure the levels of glutamate and GABA biomarkers. […]

[2] = tested on: subject diagnosed with Rett Syndrome; test: Example 1: daily liquid formulation in a subject with Rett Syndrome, follow-up questionnaire; format: in vivo, human; settings: 5 mL of 0.2 mg/mL liquid formulation daily, total daily dose 1 mg
Experimental: A subject diagnosed with Rett Syndrome was daily administered 5 mL of a liquid formulation containing A2-73 at a concentration of 0.2 mg/mL, for a total daily dose of 1 mg of […]2-73.

[3] = tested on: healthy male volunteers; settings: cited from earlier work
[4] = tested on: subject, diagnosed with Rett Syndrome; test: Example 6: liquid formulation in a subject with Rett Syndrome; format: in vivo, human; settings: 1 mL of liquid formulation (0.2 mg/mL)
Experimental: A subject, diagnosed with Rett Syndrome is administered 1 mL of a liquid formulation (0.2 mg/mL).

[5] = tested on: glutamate and GABA biomarkers; test: Example 5: plasma glutamate and GABA biomarkers; format: in vivo, human; settings: Week 0 vs. Week 7; Wilcoxon Z=−1.992, p (2-tailed)=0.046
From the text: In one aspect, the method further comprises measuring, or having measured or obtained a baseline plasma glutamate and/or gamma aminobutyric acid (GABA) level in the subject prior to treatment with ANAVEX2-73 as described herein, and measuring or having measured or obtained at least a second plasma glutamate and/or gamma aminobutyric acid (GABA) level following a period of treatment with ANAVEX2-73 as described herein. Measurement of a plasma glutamate and/or gamma aminobutyric acid (GABA) level comprises withdrawing a whole blood sample from the subject, separating the blood plasma from remaining whole blood components such as by centrifuging the sample, isolating the blood plasma, and measuring the amount of glutamate and/or gamma aminobutyric acid (GABA) in the blood plasma using any one of several techniques known in the art. […]
as §1, §2

[6] = format: physicochemical
From the text: Dosage formulations used in the disclosed methods comprise a therapeutically effective amount of ANAVEX2-73, the crystalline HCl salt of tetrahydro-N,N-dimethyl-2,2-diphenyl-3-furanmethanamine, or tetrahydro-N,N-dimethyl-2,2-diphenyl-3-furanmethanamine hydrochloride (IUPAC name: 1-(2,2-diphenyloxolan-3-yl)-N,N-dimethylmethanamine hydrochloride). […] Thus ANAVEX2-73 (used herein to refer to the HCl salt or the free base) is highly amenable to incorporation in the dosage formulations disclosed herein. For example, ANAVEX2-73 as either the HCl salt or the free base has a relatively low molecular weight (<400 Da), and is thus well suited for transmucosal or transdermal delivery, or rapid oral delivery. ANAVEX2-73 has a pKa around 8-9, which also makes it well-suited for transmucosal delivery. Therapeutically effective doses of ANAVEX2-73 are well suited for various thin film formulations, including oral and transdermal thin film formulations.

[7] = single oral dose, healthy male volunteers

SMILES | improvement in the RSBQ ([1]; all six subjects, week 0 to week 7, Wilcoxon Z=−2.207, p (2-tailed)=0.027) | RSBQ and CGI-I after 7 weeks ([1]; correlated, p=0.003) | parameters measured (FIG. 1, FIG. 2A-D, FIG. 3A-E) ([1]; orally administered liquid formulation, 7 weeks) | motor skills and cognition according to follow-up questionnaire [2] | serious adverse events ([3]; single ascending oral dose, 22 healthy male volunteers) | maximum tolerable dose (MTD) [3, 7] [mg] | minimum intolerable dose (MID) [3, 7] [mg] | CGI-I index [4] | Rett Syndrome Behavior Questionnaire (RSBQ) [4] | levels of glutamate biomarker in plasma [5] | solubility in organic solvents [6]
CN(C)CC1CCOC1(c1ccccc1)c1ccccc1.Cl (centres unmarked) [ANAVEX2-73, tetrahydro-N,N-dimethyl-2,2-diphenyl-3-furanmethanamine hydrochloride] | over 30% | reduction | vast improvement | improvement | No serious adverse events | 55 | 60 | improvement | improvement | decreased significantly | 
CN(C)CC1CCOC1(c1ccccc1)c1ccccc1 (centres unmarked) [free base form of ANAVEX2-73, tetrahydro-N,N-dimethyl-2,2-diphenyl-3-furanmethanamine] |  |  |  |  |  |  |  |  |  |  | soluble in almost all organic solvents
